Here are results for 22 compounds from PubChem BioAssay AID330 (DTP/NCI, 2004).

Where “and” joins values, the source holds several entries; their conditions need not be identical. Equal entries are not always repeated. Toxic doses and inconclusive results are not listed.

The subject of this assay is P388 leukemia ip, CD2F1 mice, survival T/C. Briefly: NCI In Vivo Anticancer Drug Screen. Data for tumor model P388 Leukemia (intraperitoneal) in CD2F1 (CDF1) mice. Conditions: endpoint: median survival time, higher = longer survival. In a few lines: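 Mice carrying the transplanted tumor received test compound or vehicle. Survival was recorded in each group, and the value is the treated-group measurement divided by that of the vehicle-treated control group.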

The mark [1] stands for this setting: dose: 30.0 mg/kg/injection, schedule: Q01DX005 (ip), vehicle: saline with Tween-80.
Setting [2] is: dose: 60.0 mg/kg/injection, schedule: Q01DX005 (ip), vehicle: saline with Tween-80.
Where [3] appears, read: dose: 120.0 mg/kg/injection, schedule: Q01DX005 (ip), vehicle: saline with Tween-80.
Where [4] appears, read: dose: 240.0 mg/kg/injection, schedule: Q01DX005 (ip), vehicle: saline with Tween-80.
Where [5] appears, read: dose: 50.0 mg/kg/injection, schedule: Q01DX005 (ip), vehicle: saline with Tween-80.
Where [6] appears, read: dose: 100.0 mg/kg/injection, schedule: Q01DX005 (ip), vehicle: saline with Tween-80.
The mark [7] stands for this setting: dose: 200.0 mg/kg/injection, schedule: Q01DX005 (ip), vehicle: saline with Tween-80.
Where [8] appears, read: dose: 3.12 mg/kg/injection, schedule: Q01DX009 (ip), vehicle: saline.
Where [9] appears, read: dose: 12.5 mg/kg/injection, schedule: Q01DX009 (ip), vehicle: saline.
The mark [10] stands for this setting: dose: 25.0 mg/kg/injection, schedule: Q01DX009 (ip), vehicle: saline.
Setting [11] is: dose: 50.0 mg/kg/injection, schedule: Q01DX009 (ip), vehicle: saline.
Where [12] appears, read: dose: 100.0 mg/kg/injection, schedule: Q01DX009 (ip), vehicle: saline.
The mark [13] stands for this setting: dose: 200.0 mg/kg/injection, schedule: Q01DX009 (ip), vehicle: saline.

On to `C1=C(c2ccccc2)C(=Nc2ccccc2)SC1=Nc1ccccc1`, for which the T/C runs as follows: (dose: 1.87 mg/kg/injection, schedule: Q01DX005 (ip), vehicle: saline with Tween-80) 113 % of control; (dose: 7.5 mg/kg/injection, schedule: Q01DX005 (ip), vehicle: saline with Tween-80) 107 % of control; under setting [1], 100 % of control; under setting [2], 120 % of control; under setting [3], 122 % of control; under setting [4], 120 % of control.

As for `N#Cc1ncn(Cc2ccccc2)c1N`, the T/C reads like this: (dose: 15.0 mg/kg/injection, schedule: Q01DX005 (ip), vehicle: saline with Tween-80) 95 % of control; under setting [1], 101 % of control; under setting [2], 105 % of control and 109 % of control.

With `COc1c(CC(O)C(C)(C)O)c(=O)n(C)c2ccccc12` (centres undefined), the T/C is, setting by setting: (dose: 4.5 mg/kg/injection, schedule: Q01DX005 (ip), vehicle: Klucel (hydroxypropylcellulose) (HPC)) 102 % of control; (dose: 9.0 mg/kg/injection, schedule: Q01DX005 (ip), vehicle: Klucel (hydroxypropylcellulose) (HPC)) 98 % of control; (dose: 18.0 mg/kg/injection, schedule: Q01DX005 (ip), vehicle: Klucel (hydroxypropylcellulose) (HPC)) 90 % of control; (dose: 36.0 mg/kg/injection, schedule: Q01DX005 (ip), vehicle: Klucel (hydroxypropylcellulose) (HPC)) 93 % of control.

With `CC1C(O)C(O)CC2COCC21` (centres undefined), the T/C reads like this: (dose: 37.5 mg/kg/injection, schedule: Q01DX001 (ip), vehicle: saline) 100 % of control; (dose: 75.0 mg/kg/injection, schedule: Q01DX001 (ip), vehicle: saline) 100 % of control; (dose: 150.0 mg/kg/injection, schedule: Q01DX001 (ip), vehicle: saline) 104 % of control.

On to `CC1(C)CSC(=S)N1`, for which the T/C by setting is: (dose: 2.5 mg/kg/injection, schedule: Q01DX009 (ip), vehicle: saline sonified) 109 % of control; (dose: 5.0 mg/kg/injection, schedule: Q01DX009 (ip), vehicle: saline sonified) 100 % of control; (dose: 10.0 mg/kg/injection, schedule: Q01DX009 (ip), vehicle: saline sonified) 100 % of control.

In the case of `C1=C[N-]c2c3c(ccc2=C1)=CC=C[N-]3.C1=C[N-]c2c3c(ccc2=C1)=CC=C[N-]3.O=[N+]([O-])O.[Cu+]`, the T/C reads like this: (dose: 1.56 mg/kg/injection, schedule: Q04DX002 (ip), vehicle: saline) 100 % of control; (dose: 3.12 mg/kg/injection, schedule: Q04DX002 (ip), vehicle: saline) 99 % of control and 98 % of control; (dose: 6.25 mg/kg/injection, schedule: Q04DX002 (ip), vehicle: saline) 99 % of control and 110 % of control and 98 % of control; (dose: 12.5 mg/kg/injection, schedule: Q04DX002 (ip), vehicle: saline) 120 % of control and 97 % of control; (dose: 25.0 mg/kg/injection, schedule: Q04DX002 (ip), vehicle: saline) 111 % of control and 97 % of control.

As to `CCCCCCCC(=O)N/N=C/c1ccc(O)c(OCC)c1`, the T/C under setting [5] was 95 % of control and the T/C under setting [6] is 90 % of control.

Take `Cc1ccc(C(=O)CC2(O)C(=O)Nc3ccccc32)cc1` (centres undefined): the T/C was 96 % of control (dose: 50.0 mg/kg/injection, schedule: Q01DX009 (ip), vehicle: Klucel (hydroxypropylcellulose) (HPC)); 92 % of control (dose: 100.0 mg/kg/injection, schedule: Q01DX009 (ip), vehicle: Klucel (hydroxypropylcellulose) (HPC)); 87 % of control (dose: 200.0 mg/kg/injection, schedule: Q01DX009 (ip), vehicle: Klucel (hydroxypropylcellulose) (HPC)).

As to `C=C(Cl)/C=N/C(=O)NC(O)C(=C)Cl` (centres undefined), the T/C under setting [5] is 93 % of control, the T/C under setting [6] was 96 % of control and the T/C under setting [7] was 93 % of control.

Turning to `CNC(=O)OCc1c(COC(=O)NC)c(-c2ccc(N)cc2)n(C)c1C`, the T/C is, setting by setting: (dose: 6.25 mg/kg/injection, schedule: Q01DX009 (ip), vehicle: distilled water + Tween-80) 106 % of control and 92 % of control; (dose: 12.5 mg/kg/injection, schedule: Q01DX009 (ip), vehicle: distilled water + Tween-80) 119 % of control and 98 % of control; (dose: 25.0 mg/kg/injection, schedule: Q01DX009 (ip), vehicle: distilled water + Tween-80) 100 % of control and 123 % of control; (dose: 50.0 mg/kg/injection, schedule: Q01DX009 (ip), vehicle: distilled water + Tween-80) 119 % of control.

Turning to `c1ccc(CSc2ncnc3n[nH]nc23)cc1`, the T/C is 100 % of control under setting [8]; 106 % of control (dose: 6.25 mg/kg/injection, schedule: Q01DX009 (ip), vehicle: saline); 104 % of control under setting [9]; 100 % of control under setting [10].

Regarding `O=C(Nc1ccc(Cl)c(Cl)c1)O/N=C/c1ccncc1`, the T/C was 96 % of control (dose: 50.0 mg/kg/injection, schedule: Q01DX009 (ip), vehicle: saline + alcohol); 89 % of control (dose: 100.0 mg/kg/injection, schedule: Q01DX009 (ip), vehicle: saline + alcohol); 89 % of control (dose: 200.0 mg/kg/injection, schedule: Q01DX009 (ip), vehicle: saline + alcohol).

Regarding `Cc1ccc(S(=O)(=O)[n+]2ccccc2)cc1`, the T/C by setting is: (dose: 100.0 mg/kg/injection, schedule: Q01DX001 (ip), vehicle: saline) 104 % of control; (dose: 200.0 mg/kg/injection, schedule: Q01DX001 (ip), vehicle: saline) 100 % of control; (dose: 400.0 mg/kg/injection, schedule: Q01DX001 (ip), vehicle: saline) 100 % of control.

Regarding `COc1nsc2ccc(C(C)C(N)=O)cc12` (centres undefined), the T/C reads like this: under setting [2], 100 % of control; under setting [3], 97 % of control; under setting [4], 89 % of control.

Turning to `COC(=S)c1cccc(C(=S)OC)c1`, the T/C was 108 % of control (dose: 50.0 mg/kg/injection, schedule: Q01DX009 (ip), vehicle: saline with Tween-80); 115 % of control (dose: 100.0 mg/kg/injection, schedule: Q01DX009 (ip), vehicle: saline with Tween-80); 108 % of control (dose: 200.0 mg/kg/injection, schedule: Q01DX009 (ip), vehicle: saline with Tween-80).

Consider `Cc1ccc(NC(=O)c2cc3ccccc3cc2O)c(C)c1.Cc1ccc(NC(=O)c2cc3ccccc3cc2O)c(C)c1.[Fe+2]`, for which the T/C is, setting by setting: under setting [11], 92 % of control; under setting [12], 104 % of control; under setting [13], 90 % of control.

Take `CC1(C)OC2OC(C3CSC(=S=O)S3)C(O)C2O1` (centres undefined): the T/C runs as follows: (dose: 12.5 mg/kg/injection, schedule: Q01DX005 (ip), vehicle: Klucel + Tween-80) 95 % of control; (dose: 25.0 mg/kg/injection, schedule: Q01DX005 (ip), vehicle: Klucel + Tween-80) 100 % of control; (dose: 50.0 mg/kg/injection, schedule: Q01DX005 (ip), vehicle: Klucel + Tween-80) 103 % of control.

`CC(C)CC1NC(=O)OC1=O` (centres undefined): the T/C was 98 % of control under setting [5], 94 % of control under setting [6] and 91 % of control under setting [7].

With `CCNc1snc2c1c(=O)[nH]c(=O)n2Cc1ccccc1`, the T/C is 86 % of control under setting [9]; 90 % of control under setting [10]; 98 % of control and 92 % of control under setting [11].

With `CCOC(=O)c1ccc(N(C)Cc2cnc(N)c(C#N)n2)cc1`, the T/C runs as follows: (dose: 15.0 mg/kg/injection, schedule: Q01DX009 (ip), vehicle: saline with Tween-80) 114 % of control; (dose: 30.0 mg/kg/injection, schedule: Q01DX009 (ip), vehicle: saline with Tween-80) 115 % of control; (dose: 60.0 mg/kg/injection, schedule: Q01DX009 (ip), vehicle: saline with Tween-80) 89 % of control.

For the compound `CC1(C)N=C(N)N=C(N)N1c1ccc(Cl)c(C(F)(F)F)c1`, the T/C under setting [8] is 108 % of control; the T/C under setting [9] is 124 % of control; the T/C (dose: 12.5 mg/kg/injection, schedule: Q01DX009 (ip), vehicle: suspension in saline) is 155 % of control; the T/C (dose: 25.0 mg/kg/injection, schedule: Q01DX009 (ip), vehicle: suspension in saline) was 172 % of control.

For `Cc1cc(Nc2ccccc2C(=O)N/N=C/c2ccc(N(CCCl)CCCl)cc2)nc2ccc(Cl)cc12`, the T/C is, setting by setting: under setting [11], 95 % of control; under setting [12], 90 % of control; under setting [13], 95 % of control.
